Results reported in US20210239681A1, “COMPOSITIONS AND METHODS FOR […] OF […]-BASED IMMUNOTHERAPEUTICS” (ADVAXIS, INC., priority 2018, published 2021).

Key:
Type in all cases: cell-based, human
10mer specific T cells = test: Co-culture of THP-1 with 10mer specific T cells, cytokine production; design: IFNγ / IL-10 / IL-13 / IL-1β / IL-2 / IL-5 / IL-6 / TNF-α: unit not given here; details: for IFNγ production, with 10mer specific T cells: Listeria MOI of 10, optical density
Text: (§1) Analysis Kits and Reagents: Analysis of cytokine concentrations in culture medium used the U-plex assay kits from Meso Scale Discovery. Expression of T cell receptors specific for E7 peptide bound to HLA-A*02:01 was detected using HLA-A*02:01/peptide tetramers from MBL International (Woburn, Mass.).
(§2) There were several possible explanations for the muted response with THP-1 cells infected with ADSX11: including failure of THP-1 cells to process the 10mer epitope from full length E7 protein, failure of the THP-1 cells to present the processed 10mer E7 peptide on HLA-A*02:01, insufficient incubation of the infected cells to allow synthesis of the E7 protein and accumulation of the MHC/peptide complex on the cell surface, and/or an inhibitory effect of gentamicin. A culture of T cells specific for the 9mer epitope was used as well as a new culture of 10mer specific T cells. The THP-1 cells were infected as before with XFL7 or ADXS11-001 at an MOI of 10. After treatment with gentamicin for one hour, the cells were cultured overnight in the absence of gentamicin. The next day the infected cells were collected and co-cultured with 9mer or 10mer specific T cells. These co-cultures were set up in standard X-VIVO 15 and X-VIVO 15 without gentamicin or phenol red. The co-cultures were incubated overnight before collecting medium for cytokine analysis. The medium was tested for IFNγ concentrations and optical density. […] In addition, the 10mer specific T cells recognized ADXS11-001 infected THP-1 when there was no gentamicin in the medium.
(§3) To further explore the importance of the overnight incubation of infected THP-1, THP-1 cells infected overnight were compared to THP-1 cells infected for 2 hours. T cells specific for 9mer and 10mer peptides were co-cultured with each of the THP-1 cells and with uninfected or peptide exposed THP-1. As before, medium was collected after an overnight co-culture and cytokines were measured.
(§4) Optimization of infection time required for E7 presentation. THP-1 infected and cultured overnight compared to THP-1 infected for 2 hours and used after gentamicin treatment. Both 9-mer specific T cells and 10-mer specific T cells used. Assays were performed using X-VIVO 15 medium without gentamicin. The following cytokines were measured: IFNγ, IL-1β, IL-2, IL-10, IL-12p70, IL-13, IL-5, IL-6, TNFα.

THP-1 cells [1] = test: Cytokine production by THP-1 in the absence of T cells; design: IL-6: unit not given here
Description: as §1
Infection of THP-1: The THP-1 cell line was infected with either ADXS11-001 or XFL7 by incubating 10^6 cells with dilutions of bacteria in a 1 mL volume of RPMI 1640 10% FBS. […] After incubation with gentamicin the cells were washed again and resuspended to the desired cell concentration.
(§5) T cell cytokine expression analysis. An initial experiment using THP-1 as antigen presenting cells was performed using a T cell culture containing 6% E7 (11-20) specific T cells based upon staining with HLA-A*02:01/peptide tetramer. THP-1 cells were infected as described using two different concentrations of bacteria and then co-cultured with the T cells. Controls included uninfected THP-1 cells and THP-1 cells incubated with (exposed to) either the 9mer or 10mer peptide for one hour. After an overnight co-culture, medium was collected for analysis of cytokines.
as §3
Titration studies with different multiplicity of infection (MOI). THP cells were infected for 2 hours with 3 different dilutions (MOI) of Listeria. Infected or uninfected THP cells were then cultured overnight for 24 hours before co-culturing the T cells. Cells were co-cultured overnight before cytokine analysis.

T cells = test: Intracellular cytokine staining of T cells; details: Brefeldin A, FIG. 9
Description: (§6) To identify cytokines that can be used to measure potency of a Listeria-based therapeutic the following tests were performed. Intracellular cytokine staining was used to detect T cells specificity. THP-1 were incubated with peptide overnight, mixed with T cells from above and centrifuged. The collected cells were then co-cultured at 37° C. for 1 hour. Brefeldin A was then added and the cells were co-cultured for another 4 hours. Brefeldin A inhibits secretion and permits analysis by flow cytometry. Cell were then stained to identify dead cells and CD8+ cells. The cell were then fixed and stained for IFNγ (using fix and permeabilization buffer from eBioscience/Invitrogen).

THP-1 cells [2] = test: Cytokine production by THP-1 in the absence of T cells; details: Without gentamicin; Listeria MOI of 10; optical density
9mer specific T cells = test: Co-culture of THP-1 with 9mer specific T cells, cytokine production; design: IFNγ / IL-10 / IL-12p70 / IL-13 / IL-1β / IL-2 / IL-5 / IL-6 / TNF-α: unit not given here; details: for IFNγ production, with 9mer specific T cells: Listeria MOI of 10, optical density
Text: as §1, §2, §3, §4

[3] = test system: E7 (11-20) specific T cells; test: Initial THP-1 / T cell co-culture cytokine production (T cell culture with 6% E7 (11-20) specific T cells); design: IFNγ / TNF-α / IL-10 / IL-12p70 / IL-13 / IL-1β / IL-2 / IL-4 / IL-6 / IL-8: unit not given here; details: T cells and THP-1 incubated with peptide one hour; overnight co-culture
Description: as §1
Infection of THP-1: The THP-1 cell line was infected with either ADXS11-001 or XFL7 by incubating 10^6 cells with dilutions of bacteria in a 1 mL volume of RPMI 1640 10% FBS. Incubation with bacteria was at 37° C., 5% CO2 for the indicated times, then extracellular bacteria were eliminated by washing and incubation in the presence of 50 μg/mL gentamicin for 1 hour at 37° C. After incubation with gentamicin the cells were washed again and resuspended to the desired cell concentration.
as §5

PBMC = test: Cytokine release by donor PBMC cultured with peptide; design: unit not given beside the values; details: release on antigen
Description: Peripheral blood mononuclear cells (PBMCs) samples were collected from three human HLA-A*02:01 donors: 358, 213, and 224. The peripheral blood mononuclear cells (PBMCs) were cultured with one of two E7 peptides: […] (9mer or 1T; SEQ ID NO: 100) or […] (10mer or 2T; SEQ ID NO: 101). After 10 days culture, the PBMCs were tested for E7 peptide binding staining and cytokine release.

THP-1 cells [4] = test: Intracellular cytokine staining of THP-1 cells; details: FIGS. 3A-3C, FIG. 10
Description: as §6
Intracellular cytokine staining of THP-1 cells.

[5] = THP-1 incubated with peptide, absence of T cells
[6] = 9mer T cells + peptide exposed THP-1, overnight co-culture
[7] = 10mer T cells + peptide exposed THP-1, overnight co-culture

**Q.** gentamicin was tested. Which “effect of gentamicin in the culture medium on antigen presentation” value (10mer specific T cells; Listeria-based infection of THP-1, 50 μg/mL) did it give?
**A.** inhibits expression of E7 or antigen presentation

**Q.** For YMLDLQPET [9mer], which “IFNγ production, THP-1 alone” value (THP-1 cells [1]; 50 μg/mL gentamicin, Listeria MOI of 10, optical density) is on record?
**A.** 0.064

**Q.** What about the IFNγ (THP-1 cells [1]; THP-1 alone, peptide exposed) of the same substance?
**A.** <LLOD

**Q.** And the IL-1β (THP-1 cells [1]; THP-1 alone, peptide exposed)?
**A.** <LLOD

**Q.** And the IL-2 (THP-1 cells [1]; THP-1 alone, peptide exposed)?
**A.** <LLOD

**Q.** And the IL-5 (THP-1 cells [1]; THP-1 alone, peptide exposed)?
**A.** <LLOD

**Q.** What about the IL-6 (THP-1 cells [1]; THP-1 alone, peptide exposed) of the same substance?
**A.** <LLOD

**Q.** And the IL-10 (THP-1 cells [1]; THP-1 alone, peptide exposed)?
**A.** <LLOD

**Q.** What about the IL-12p70 (THP-1 cells [1]; THP-1 alone, peptide exposed) of the same substance?
**A.** <LLOD

**Q.** And the IL-13 (THP-1 cells [1]; THP-1 alone, peptide exposed)?
**A.** <LLOD

**Q.** And the TNF-α (THP-1 cells [1]; THP-1 alone, peptide exposed)?
**A.** 0

**Q.** What about the IFNγ (THP-1 cells [1]; [5]) of the same substance?
**A.** <LLOD

**Q.** And the IL-1β (THP-1 cells [1]; [5])?
**A.** 0.0

**Q.** What about the IL-2 (THP-1 cells [1]; [5]) of the same substance?
**A.** <LLOD

**Q.** What about the IL-4 (THP-1 cells [1]; [5]) of the same substance?
**A.** <LLOD

**Q.** And the IL-6 (THP-1 cells [1]; [5])?
**A.** <LLOD

**Q.** What about the IL-8 (THP-1 cells [1]; [5]) of the same substance?
**A.** 7.3

**Q.** And the IL-10 (THP-1 cells [1]; [5])?
**A.** <LLOD

**Q.** And the IL-12p70 (THP-1 cells [1]; [5])?
**A.** <LLOD

**Q.** What about the IL-13 (THP-1 cells [1]; [5]) of the same substance?
**A.** <LLOD

**Q.** What about the TNF-α (THP-1 cells [1]; [5]) of the same substance?
**A.** <LLOD

**Q.** And the “IFNγ in T cells after stimulation with peptide” value (T cells)?
**A.** detected

**Q.** And the “IFNγ production, THP-1 alone” value (THP-1 cells [2])?
**A.** 0.059

**Q.** What about the “IFNγ production, with 9mer specific T cells” value (9mer specific T cells; 50 μg/mL gentamicin) of the same substance?
**A.** 0.177

**Q.** What about the IFNγ (9mer specific T cells; [6]) of the same substance?
**A.** 4713

**Q.** And the IL-1β (9mer specific T cells; [6])?
**A.** 0

**Q.** And the IL-2 (9mer specific T cells; [6])?
**A.** 18

**Q.** What about the IL-5 (9mer specific T cells; [6]) of the same substance?
**A.** 0

**Q.** What about the IL-6 (9mer specific T cells; [6]) of the same substance?
**A.** 13

**Q.** And the IL-10 (9mer specific T cells; [6])?
**A.** 1

**Q.** What about the IL-12p70 (9mer specific T cells; [6]) of the same substance?
**A.** 0

**Q.** What about the IL-13 (9mer specific T cells; [6]) of the same substance?
**A.** 3

**Q.** What about the TNF-α (9mer specific T cells; [6]) of the same substance?
**A.** 74

**Q.** What about the “IFNγ production, with 9mer specific T cells” value (9mer specific T cells; Without gentamicin) of the same substance?
**A.** 0.117

**Q.** And the IFNγ [3]?
**A.** 1508.2

**Q.** And the IL-1β [3]?
**A.** 1.0

**Q.** What about the IL-2 [3] of the same substance?
**A.** 3.7

**Q.** And the IL-4 [3]?
**A.** 0.2

**Q.** And the IL-6 [3]?
**A.** 4.2

**Q.** What about the IL-8 [3] of the same substance?
**A.** 405.7

**Q.** And the IL-10 [3]?
**A.** 2.1

**Q.** And the IL-12p70 [3]?
**A.** <LLOD

**Q.** What about the IL-13 [3] of the same substance?
**A.** 120.3

**Q.** And the TNF-α [3]?
**A.** 57.1

**Q.** And the “IFNγ production, with 10mer specific T cells” value (10mer specific T cells; 50 μg/mL gentamicin)?
**A.** 0.063

**Q.** What about the IFNγ (10mer specific T cells; [7]) of the same substance?
**A.** 103

**Q.** And the IL-1β (10mer specific T cells; [7])?
**A.** <LLOD

**Q.** What about the IL-2 (10mer specific T cells; [7]) of the same substance?
**A.** <LLOD

**Q.** And the IL-5 (10mer specific T cells; [7])?
**A.** <LLOD

**Q.** What about the IL-6 (10mer specific T cells; [7]) of the same substance?
**A.** <LLOD

**Q.** What about the IL-10 (10mer specific T cells; [7]) of the same substance?
**A.** 0

**Q.** And the IL-12p70 (10mer specific T cells; [7])?
**A.** <LLOD

**Q.** What about the IL-13 (10mer specific T cells; [7]) of the same substance?
**A.** <LLOD

**Q.** What about the TNF-α (10mer specific T cells; [7]) of the same substance?
**A.** <LLOD

**Q.** What about the “IFNγ production, with 10mer specific T cells” value (10mer specific T cells; Without gentamicin) of the same substance?
**A.** 0.062

**Q.** And the “IFNγ Mean” value (PBMC; donor 213 PBMC cultured with 1T peptide)?
**A.** 242.6

**Q.** What about the “IFNγ Mean” value (PBMC; donor 358 PBMC stimulated with 1T) of the same substance?
**A.** 1642.7

**Q.** And the “IFNγ Mean” value (PBMC; donor 358 PBMC stimulated with 2T)?
**A.** 352.4

**Q.** And the “Basal IFNγ in THP-1 cells after stimulation with peptide” value (THP-1 cells [4])?
**A.** not detectable
